These results are taken from ChEMBL document CHEMBL5465560, “Selectivity Literature for EUbOPEN Chemogenomic Library” (2024).

Experiment [1] deals with Serine/threonine-protein kinase SBK1 (Homo sapiens) (UniProt Q52WX2). Description: Selectivity interaction (Kinase panel (Z-LYTE Assay)) EUB0001632a SBK1. The settings on record: at 10 µM.
Experiment [2] addresses Tyrosine-protein kinase Blk (Homo sapiens) (UniProt P51451). In words: Selectivity interaction (KinomeScan (DiscoverX)) EUB0000607a BLK. To be noted: at 10 µM.
Experiment [3] has as its target T1, Cyclin-dependent kinase 11A (Homo sapiens) (UniProt Q9UQ88).
T1 sequence (whole entry): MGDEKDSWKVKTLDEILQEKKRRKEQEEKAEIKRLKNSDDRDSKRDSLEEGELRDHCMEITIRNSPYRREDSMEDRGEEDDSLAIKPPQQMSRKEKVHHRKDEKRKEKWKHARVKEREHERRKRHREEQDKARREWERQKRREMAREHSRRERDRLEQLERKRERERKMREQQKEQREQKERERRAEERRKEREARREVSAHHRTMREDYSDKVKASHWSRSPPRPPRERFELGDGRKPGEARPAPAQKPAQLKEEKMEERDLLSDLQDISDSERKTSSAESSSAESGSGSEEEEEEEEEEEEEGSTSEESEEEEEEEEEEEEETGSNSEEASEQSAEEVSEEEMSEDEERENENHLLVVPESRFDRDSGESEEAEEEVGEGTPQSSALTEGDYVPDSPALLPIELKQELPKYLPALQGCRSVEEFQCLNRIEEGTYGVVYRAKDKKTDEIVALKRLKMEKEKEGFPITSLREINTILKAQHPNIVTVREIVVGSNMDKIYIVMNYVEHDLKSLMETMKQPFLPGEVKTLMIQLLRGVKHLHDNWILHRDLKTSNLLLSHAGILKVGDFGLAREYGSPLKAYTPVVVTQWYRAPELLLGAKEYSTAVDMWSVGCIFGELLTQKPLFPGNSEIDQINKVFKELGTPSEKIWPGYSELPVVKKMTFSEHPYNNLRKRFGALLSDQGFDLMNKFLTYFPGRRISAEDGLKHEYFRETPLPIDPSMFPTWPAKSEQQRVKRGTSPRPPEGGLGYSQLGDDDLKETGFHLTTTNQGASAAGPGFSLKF
The settings on record: at 10 µM.

Experiment [4] addresses Serine/threonine-protein kinase 32B (Homo sapiens) (UniProt Q9NY57). The settings on record: at 10 µM.
Experiment [5] concerns the target T2, Serine/threonine-protein kinase ULK1 (Homo sapiens) (UniProt O75385).
T2 sequence (whole entry): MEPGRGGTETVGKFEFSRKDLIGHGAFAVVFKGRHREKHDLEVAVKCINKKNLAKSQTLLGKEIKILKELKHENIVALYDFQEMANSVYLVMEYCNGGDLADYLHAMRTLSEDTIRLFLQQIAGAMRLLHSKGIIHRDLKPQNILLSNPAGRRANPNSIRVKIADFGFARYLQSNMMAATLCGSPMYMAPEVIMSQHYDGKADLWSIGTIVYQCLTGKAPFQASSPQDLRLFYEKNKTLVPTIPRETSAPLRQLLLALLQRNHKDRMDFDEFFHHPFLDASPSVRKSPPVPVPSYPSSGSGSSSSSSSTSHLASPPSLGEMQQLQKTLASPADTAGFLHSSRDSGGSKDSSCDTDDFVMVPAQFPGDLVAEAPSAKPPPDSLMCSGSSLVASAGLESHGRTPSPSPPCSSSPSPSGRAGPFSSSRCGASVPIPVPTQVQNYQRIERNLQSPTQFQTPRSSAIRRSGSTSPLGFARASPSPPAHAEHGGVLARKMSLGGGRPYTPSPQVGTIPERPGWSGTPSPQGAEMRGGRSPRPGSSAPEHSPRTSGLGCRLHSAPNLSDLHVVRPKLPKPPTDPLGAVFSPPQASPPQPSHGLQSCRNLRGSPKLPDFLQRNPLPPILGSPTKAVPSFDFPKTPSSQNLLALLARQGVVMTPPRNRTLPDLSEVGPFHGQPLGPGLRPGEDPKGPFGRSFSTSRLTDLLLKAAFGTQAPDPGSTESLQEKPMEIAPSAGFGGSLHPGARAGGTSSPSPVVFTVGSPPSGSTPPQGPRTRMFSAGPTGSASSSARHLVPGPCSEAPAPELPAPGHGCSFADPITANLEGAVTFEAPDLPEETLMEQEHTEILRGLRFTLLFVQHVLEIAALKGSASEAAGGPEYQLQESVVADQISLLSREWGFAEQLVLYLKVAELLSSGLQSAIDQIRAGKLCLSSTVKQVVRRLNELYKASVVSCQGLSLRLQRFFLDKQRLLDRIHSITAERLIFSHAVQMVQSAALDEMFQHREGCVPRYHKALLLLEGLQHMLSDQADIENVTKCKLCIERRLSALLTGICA
In words: Selectivity interaction (KinomeScan (DiscoverX)) EUB0000045b ULK1.

In experiment [6] the target is Serine/threonine-protein kinase WNK2 (Homo sapiens) (UniProt Q9Y3S1). In words: Selectivity interaction (ProQinase) EUB0000171b WNK2.
Experiment [7] addresses T3, NUAK family SNF1-like kinase 2 (Homo sapiens) (UniProt Q9H093).
T3 sequence (whole entry): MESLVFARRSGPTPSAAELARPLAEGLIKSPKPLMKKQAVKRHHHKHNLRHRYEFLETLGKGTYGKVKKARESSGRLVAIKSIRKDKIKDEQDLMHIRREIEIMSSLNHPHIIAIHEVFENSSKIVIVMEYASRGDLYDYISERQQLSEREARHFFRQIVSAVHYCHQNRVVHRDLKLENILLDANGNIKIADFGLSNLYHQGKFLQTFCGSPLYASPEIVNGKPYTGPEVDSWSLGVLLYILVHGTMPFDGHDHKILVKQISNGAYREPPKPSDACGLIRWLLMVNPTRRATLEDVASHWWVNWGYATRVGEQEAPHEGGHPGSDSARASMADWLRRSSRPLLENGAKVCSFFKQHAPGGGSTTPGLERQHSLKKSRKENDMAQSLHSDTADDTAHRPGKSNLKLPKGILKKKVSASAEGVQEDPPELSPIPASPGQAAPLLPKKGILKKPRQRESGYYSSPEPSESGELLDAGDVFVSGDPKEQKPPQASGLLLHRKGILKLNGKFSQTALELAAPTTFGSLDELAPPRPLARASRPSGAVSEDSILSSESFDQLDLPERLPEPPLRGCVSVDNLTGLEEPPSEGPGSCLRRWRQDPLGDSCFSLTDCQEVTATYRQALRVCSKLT
Description: Selectivity interaction (Ambit KINOMEscan and KiNATiv profiling in Jurkat cells) EUB0000090b NUAK2. Format: cell-based. The settings on record: at 1 µM.

The target in experiment [8] is Non-receptor tyrosine-protein kinase TYK2 (Homo sapiens, UniProt P29597). Description: Selectivity interaction (KinomeScan (DiscoverX)) EUB0000655a TYK2. To be noted: at 10 µM.
Sequence of Non-receptor tyrosine-protein kinase TYK2 (P29597 whole entry): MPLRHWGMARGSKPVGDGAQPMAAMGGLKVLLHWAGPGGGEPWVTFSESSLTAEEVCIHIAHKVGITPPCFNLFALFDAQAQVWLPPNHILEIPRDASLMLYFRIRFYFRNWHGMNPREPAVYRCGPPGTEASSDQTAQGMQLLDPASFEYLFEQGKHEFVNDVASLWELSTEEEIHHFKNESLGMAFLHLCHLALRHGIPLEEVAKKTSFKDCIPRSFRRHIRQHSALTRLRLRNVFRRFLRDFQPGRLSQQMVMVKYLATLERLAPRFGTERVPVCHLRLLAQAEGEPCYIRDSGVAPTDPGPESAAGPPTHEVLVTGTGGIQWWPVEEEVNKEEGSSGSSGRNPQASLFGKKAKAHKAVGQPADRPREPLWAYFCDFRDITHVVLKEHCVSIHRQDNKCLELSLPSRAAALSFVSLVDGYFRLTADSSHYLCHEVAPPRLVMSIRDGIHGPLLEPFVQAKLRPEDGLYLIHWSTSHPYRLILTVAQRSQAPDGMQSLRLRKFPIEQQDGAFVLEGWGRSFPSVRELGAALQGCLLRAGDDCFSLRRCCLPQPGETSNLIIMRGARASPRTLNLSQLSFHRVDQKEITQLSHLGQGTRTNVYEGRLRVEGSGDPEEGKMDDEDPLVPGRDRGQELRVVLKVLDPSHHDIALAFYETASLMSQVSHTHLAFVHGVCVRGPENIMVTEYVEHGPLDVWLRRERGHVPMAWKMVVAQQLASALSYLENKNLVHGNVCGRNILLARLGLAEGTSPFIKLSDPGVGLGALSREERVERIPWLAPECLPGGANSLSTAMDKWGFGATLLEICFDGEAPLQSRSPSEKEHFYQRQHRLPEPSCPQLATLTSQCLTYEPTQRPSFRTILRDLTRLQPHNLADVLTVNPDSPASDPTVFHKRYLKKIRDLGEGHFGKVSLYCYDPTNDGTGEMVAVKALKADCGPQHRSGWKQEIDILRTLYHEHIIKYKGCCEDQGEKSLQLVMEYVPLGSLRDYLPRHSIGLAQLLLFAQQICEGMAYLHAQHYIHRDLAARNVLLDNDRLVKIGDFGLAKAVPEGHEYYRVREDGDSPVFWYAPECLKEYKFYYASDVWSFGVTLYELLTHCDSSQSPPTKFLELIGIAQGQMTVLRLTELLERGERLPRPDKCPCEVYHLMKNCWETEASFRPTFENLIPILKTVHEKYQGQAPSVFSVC

Sequence of Serine/threonine-protein kinase WNK2 (Homo sapiens) (Q9Y3S1 whole entry): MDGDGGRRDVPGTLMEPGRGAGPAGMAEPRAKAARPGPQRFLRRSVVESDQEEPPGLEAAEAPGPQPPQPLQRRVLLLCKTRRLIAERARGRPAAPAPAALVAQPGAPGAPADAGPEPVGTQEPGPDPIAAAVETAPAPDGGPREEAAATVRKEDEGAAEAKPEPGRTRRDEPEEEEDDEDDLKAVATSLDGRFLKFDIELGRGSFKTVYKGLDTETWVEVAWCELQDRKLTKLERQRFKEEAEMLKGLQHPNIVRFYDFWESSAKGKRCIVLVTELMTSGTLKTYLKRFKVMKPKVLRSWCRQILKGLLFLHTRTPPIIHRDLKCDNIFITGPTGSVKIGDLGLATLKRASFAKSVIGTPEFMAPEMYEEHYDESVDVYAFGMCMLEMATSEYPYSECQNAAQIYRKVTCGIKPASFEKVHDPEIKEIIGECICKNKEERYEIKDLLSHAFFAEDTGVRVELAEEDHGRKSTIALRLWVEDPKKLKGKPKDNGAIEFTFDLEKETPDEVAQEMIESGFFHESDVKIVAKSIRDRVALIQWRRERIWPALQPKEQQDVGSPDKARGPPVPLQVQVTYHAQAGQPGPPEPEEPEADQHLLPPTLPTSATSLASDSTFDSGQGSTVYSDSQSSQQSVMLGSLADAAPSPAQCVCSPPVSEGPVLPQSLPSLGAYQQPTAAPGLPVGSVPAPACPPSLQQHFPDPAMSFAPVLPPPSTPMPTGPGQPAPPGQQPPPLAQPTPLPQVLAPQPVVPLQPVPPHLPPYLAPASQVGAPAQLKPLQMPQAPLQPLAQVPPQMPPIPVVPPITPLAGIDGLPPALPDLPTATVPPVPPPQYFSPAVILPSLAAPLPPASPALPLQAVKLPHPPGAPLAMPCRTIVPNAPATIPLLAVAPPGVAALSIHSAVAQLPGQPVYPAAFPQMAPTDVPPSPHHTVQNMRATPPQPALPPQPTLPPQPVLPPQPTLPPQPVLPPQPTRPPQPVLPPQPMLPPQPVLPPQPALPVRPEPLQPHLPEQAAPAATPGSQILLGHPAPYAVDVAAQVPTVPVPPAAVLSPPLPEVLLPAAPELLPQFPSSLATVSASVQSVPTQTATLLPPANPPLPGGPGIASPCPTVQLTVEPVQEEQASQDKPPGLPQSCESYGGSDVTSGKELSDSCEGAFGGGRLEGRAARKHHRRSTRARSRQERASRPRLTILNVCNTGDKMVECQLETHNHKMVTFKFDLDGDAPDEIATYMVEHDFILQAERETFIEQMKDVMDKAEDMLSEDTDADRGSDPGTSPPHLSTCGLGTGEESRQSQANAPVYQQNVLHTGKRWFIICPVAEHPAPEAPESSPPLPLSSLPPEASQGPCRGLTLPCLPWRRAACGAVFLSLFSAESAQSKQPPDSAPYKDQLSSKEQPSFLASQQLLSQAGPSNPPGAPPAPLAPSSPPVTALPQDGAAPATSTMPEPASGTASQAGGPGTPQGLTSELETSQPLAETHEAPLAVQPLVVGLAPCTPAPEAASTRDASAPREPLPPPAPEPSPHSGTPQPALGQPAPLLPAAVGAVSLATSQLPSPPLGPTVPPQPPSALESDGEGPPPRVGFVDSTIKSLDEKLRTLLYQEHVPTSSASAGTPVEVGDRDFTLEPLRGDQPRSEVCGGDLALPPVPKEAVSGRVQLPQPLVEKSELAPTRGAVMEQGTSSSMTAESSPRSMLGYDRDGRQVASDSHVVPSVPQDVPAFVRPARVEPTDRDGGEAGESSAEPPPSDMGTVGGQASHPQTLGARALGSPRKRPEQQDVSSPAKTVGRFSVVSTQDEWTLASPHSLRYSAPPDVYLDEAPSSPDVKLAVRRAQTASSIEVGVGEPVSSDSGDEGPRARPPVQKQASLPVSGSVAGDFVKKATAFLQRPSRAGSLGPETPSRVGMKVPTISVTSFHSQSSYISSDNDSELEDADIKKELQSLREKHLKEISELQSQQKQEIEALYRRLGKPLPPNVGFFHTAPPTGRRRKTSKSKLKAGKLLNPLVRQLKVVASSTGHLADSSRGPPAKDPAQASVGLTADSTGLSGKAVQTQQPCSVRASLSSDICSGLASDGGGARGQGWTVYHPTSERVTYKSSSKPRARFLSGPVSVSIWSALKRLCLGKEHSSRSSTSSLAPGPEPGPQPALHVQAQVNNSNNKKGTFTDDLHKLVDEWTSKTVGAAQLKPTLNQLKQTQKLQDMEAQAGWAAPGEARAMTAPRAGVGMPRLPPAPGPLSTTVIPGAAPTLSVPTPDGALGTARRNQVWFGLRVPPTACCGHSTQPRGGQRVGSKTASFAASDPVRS
Sequence of Serine/threonine-protein kinase 32B (Homo sapiens) (Q9NY57 whole entry): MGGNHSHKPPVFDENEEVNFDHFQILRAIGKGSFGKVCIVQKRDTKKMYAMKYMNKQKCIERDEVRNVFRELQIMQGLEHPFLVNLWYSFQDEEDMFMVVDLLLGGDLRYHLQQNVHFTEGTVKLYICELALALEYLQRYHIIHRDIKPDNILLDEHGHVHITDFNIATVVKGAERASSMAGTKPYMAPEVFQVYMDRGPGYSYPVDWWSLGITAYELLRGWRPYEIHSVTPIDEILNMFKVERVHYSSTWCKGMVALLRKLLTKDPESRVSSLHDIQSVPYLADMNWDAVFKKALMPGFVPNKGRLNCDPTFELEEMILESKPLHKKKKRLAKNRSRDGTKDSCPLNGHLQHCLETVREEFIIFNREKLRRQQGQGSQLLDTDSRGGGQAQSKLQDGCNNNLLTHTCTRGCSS
Sequence of Serine/threonine-protein kinase SBK1 (Homo sapiens) (Q52WX2 whole entry): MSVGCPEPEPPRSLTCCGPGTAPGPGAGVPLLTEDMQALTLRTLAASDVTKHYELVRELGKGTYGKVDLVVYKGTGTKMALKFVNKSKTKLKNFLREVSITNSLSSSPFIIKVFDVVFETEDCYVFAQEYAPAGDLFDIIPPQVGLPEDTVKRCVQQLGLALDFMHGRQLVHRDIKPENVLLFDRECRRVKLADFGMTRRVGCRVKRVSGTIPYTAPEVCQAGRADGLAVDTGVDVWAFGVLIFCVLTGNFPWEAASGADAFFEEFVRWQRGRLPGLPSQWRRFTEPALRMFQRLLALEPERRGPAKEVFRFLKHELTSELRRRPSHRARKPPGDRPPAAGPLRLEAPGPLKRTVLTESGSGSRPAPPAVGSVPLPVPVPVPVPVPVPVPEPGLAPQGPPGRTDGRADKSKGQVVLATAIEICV
Sequence of Tyrosine-protein kinase Blk (Homo sapiens) (P51451 2-505 limits assumed): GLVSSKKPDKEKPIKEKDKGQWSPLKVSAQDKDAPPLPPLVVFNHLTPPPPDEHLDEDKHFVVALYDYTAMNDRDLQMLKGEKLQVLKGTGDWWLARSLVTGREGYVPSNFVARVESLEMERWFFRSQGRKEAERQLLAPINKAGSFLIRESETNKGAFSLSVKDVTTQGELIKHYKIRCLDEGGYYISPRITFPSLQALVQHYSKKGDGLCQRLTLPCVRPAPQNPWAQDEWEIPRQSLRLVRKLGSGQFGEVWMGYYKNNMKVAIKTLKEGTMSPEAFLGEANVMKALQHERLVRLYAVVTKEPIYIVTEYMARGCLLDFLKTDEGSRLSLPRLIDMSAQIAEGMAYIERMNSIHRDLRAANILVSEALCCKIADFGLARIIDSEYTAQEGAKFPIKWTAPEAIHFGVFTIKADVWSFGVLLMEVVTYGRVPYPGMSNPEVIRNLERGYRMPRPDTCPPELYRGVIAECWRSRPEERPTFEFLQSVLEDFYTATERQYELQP

Regarding `Cn1cc(-n2cnc3c(NCc4nc5cc(Cl)c(Cl)cc5[nH]4)nc(N4CCOCC4)nc32)cn1`, the % of control in experiment [1] was -0.405%. Regarding `CNC(=O)Nc1ccc(-c2nc(N3CC4CCC(C3)O4)c3cnn(C4CCC5(CC4)OCCO5)c3n2)cc1`, in experiment [2], the % of control came to 96%. In the case of `Cc1cc([C@@H](C)Nc2ccccc2C(=O)O)c2nc(N3CCOCC3)cc(=O)n2c1` [AZD-6482], the % of control in experiment [3] was 91%; in experiment [4], 71%. As for `C=CC(=O)Nc1cc(-n2c(=O)ccc3cnc4ccc(-c5ccc(NS(C)(=O)=O)cc5)cc4c32)ccc1C`, the results for the % of control in experiment [5] (at 1 µM) and in experiment [5] (at 10 µM) were 84% and 100%, respectively.

For the molecule `C=CC(=O)Nc1cccc(C(=O)Nc2ccc(Nc3cc(-c4[nH]c(SC)nc4C)ccn3)cc2)c1`, the values for the % of control in experiment [6] (at 1 µM) and in experiment [6] (at 5 µM) were 98% and 78%, respectively. Consider `CN(C)C/C=C/C(=O)Nc1ccc(C(=O)N2CCCC(Nc3ncc(Cl)c(-c4c[nH]c5ccccc45)n3)C2)cc1` (stereo not given), for which the % of control in experiment [7] came out at 94%. Consider `CN(C)CCOc1ccc(-c2nc(-c3ccncc3)c(-c3ccc4c(c3)CC/C4=N\O)[nH]2)cc1`, for which the % of control in experiment [8] is 100%.
